Structures can show the parent of a compound that is named as a salt. The source made the active and inactive calls.
How the values were obtained:
[1] = target: T1, Sentrin-specific protease 8 (Homo sapiens, UniProt Q96LD8); type: functional
T1 sequence (Q96LD8 whole entry): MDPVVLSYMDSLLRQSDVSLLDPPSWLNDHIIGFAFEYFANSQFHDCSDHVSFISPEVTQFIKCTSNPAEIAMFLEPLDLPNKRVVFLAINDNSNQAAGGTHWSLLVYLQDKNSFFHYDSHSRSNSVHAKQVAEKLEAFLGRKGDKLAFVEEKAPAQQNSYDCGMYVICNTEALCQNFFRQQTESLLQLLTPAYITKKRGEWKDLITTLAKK

[2] = Luminescence Cell-Based Dose Confirmation HTS to Identify Activators of 5'UTR Stem-Loop Driven Alpha-Synuclein mRNA Translation in H4 Neuroglioblastoma Cells. [Related pubchem assays: 1829 (Project Summary), 1814 (Primary HTS)]; type: functional
[3] = target: T1, Sentrin-specific protease 8; type: functional; remark: listed apart in the source
Fibrinogen beta chain [4] = target: T2, Fibrinogen beta chain (Homo sapiens, UniProt P02675); experiment: Fluorescence polarization-based biochemical high throughput dose response assay to identify inhibitors that disrupt the binding of a cyclic peptide (Tn7) to the fibrin proteolytic product D-Dimer and fragment E complex [DD(E )].
cells [5] = type: functional
Nonstructural protein 1 = Nonstructural protein 1 (Influenza A virus, UniProt Q194T2); type: functional, Influenza A virus (A/California/07/2009(H1N1))
Fibrinogen beta chain [6] = target: T2, Fibrinogen beta chain; experiment: Fluorescence polarization-based biochemical high throughput dose response assay to identify inhibitors that disrupt the binding of a cyclic peptide (Tn6) to the fibrin proteolytic product D-Dimer and fragment E complex [DD(E )].
[7] = cytotoxicity in HPDE-C7 cells, cell-based, fluorescence, HTS (AID 430); type: functional; conditions: Homo sapiens
[8] = growth suppression of PTEN-null colon cells, dose response, cell-based, HCT116 PTEN knockout (AID 1047); type: functional;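 further: HCT116 colon tumor cells with PTEN knocked out; cells exposed to compound for 60 hours before readout; potency for loss of cell viability measured by luminescence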
[9] = THP-1 cell cytotoxicity, dose response, cytotoxicity control for non-replicating M. tuberculosis project (AID 489025); type: functional
[10] = cytotoxicity in KRAS-transformed pancreatic duct cells, primary screen, cell-based, fluorescence, HTS (AID 431); type: functional; conditions: Homo sapiens;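 further: cell line used: HPDE-C7K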
H4 = experiment: Luminescence Cell-Based Dose Response HTS to Identify Activators of 5'UTR Stem-Loop Driven Prion Protein mRNA Translation in H4 Neuroglioblastoma Cells. [Related pubchem assays: 1829 (Project Summary), 1814 (Primary HTS)]; type: functional; conditions: Homo sapiens
[11] = growth suppression of beta-catenin-knockout colon cells, dose response, cell-based, HCT116, human colon tumor (AID 1045); type: functional;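 further: HCT116 colon tumor cells with beta catenin knocked out; cells exposed to compound for 60 hours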
[12] = Vero E6 cell cytotoxicity, dose response, cytotoxicity control for non-replicating M. tuberculosis project, secondary assay (AID 492998); type: functional, VeroE6; conditions: Vero C1008
[13] = target: NAD-dependent protein deacylase sirtuin-5, mitochondrial (Homo sapiens, UniProt Q9NXA8); experiment: SIRT5 desuccinylase inhibitors, dose response, biochemical, fluorescence imaging, cherry-pick, set 5 (AID 720591);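 further: desuccinylation of succinyl peptide AMC substrate read as fluorescence after trypsin release; potency of inhibitors that lower fluorescence and may act on trypsin instead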
[14] = NIH:OVCAR-3 ovarian cancer cell cytotoxicity, dose response, PAX8 inhibitor project, plate reader, dry powder samples (AID 743044); type: functional, cell-based
[15] = cytotoxicity in COV362 ovarian cancer cells, dose response, cytotoxicity control for PAX8 inhibitor project, cell-based, plate reader, dry powder, SA12 (AID 743144); type: functional
[16] = cytotoxicity in OVCAR4 cells, dose response, cytotoxicity control for PAX8 inhibitor project, cell-based, plate reader, dry powder, SA11 (AID 743150); type: functional; conditions: OVCAR-4
[17] = PAX2 cell-based inhibition, dose response, selectivity assay for PAX8 inhibitor project, plate reader, dry powder samples (AID 743048); type: functional;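 further: HEK293 cells carrying a WT1 promoter luciferase reporter driven by expressed Pax2; potency is for inhibition of Pax2 driven reporter signal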
Paired box protein Pax-8 = Paired box protein Pax-8 (Homo sapiens, UniProt Q06710); experiment: inhibitors of PAX8-driven TPO luciferase reporter, dose response, RMG-I cells, cherry-pick (AID 687027); type: functional, cell-based;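 further: luciferase reporter driven by Pax8 target thyroperoxidase promoter measured by SteadyGlo luminescence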
[18] = cytotoxicity in OV-90 ovarian cancer cells, dose response, PAX8 inhibitor project, cell-based, plate reader, dry powder, SA8 (AID 743149); type: functional
[19] = cytotoxicity dependent on PAX8, dose response, cell-based, plate reader, dry powder (AID 743049); type: functional
[20] = cytotoxicity in COV434 cells, dose response, cytotoxicity control for PAX8 inhibitor project, cell-based, plate reader, dry powder, SA7 (AID 743145); type: functional
[21] = PAX5 activity inhibitors, dose response, selectivity assay for PAX8 inhibitor project, cell-based, plate reader, dry powder samples (AID 743047); type: functional;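 further: HEK293 cells carrying a Pax5 driven CD19 promoter luciferase reporter; potency of inhibitors that lower reporter luminescence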
[22] = target: G-protein coupled receptor 183 (Homo sapiens, UniProt P32249); experiment: SAR confirmation of small molecule antagonists of the EBI2 receptor via a luminescent beta-arrestin assa.; type: functional
[23] = Concentration-dependent survival of SW480 colon cancer line, luminescence detection with CellTiter-Glo, half-maximal inhibitory concentration (AID 1117338); type: functional
[24] = HeLa 4N DNA content increase, dose response, cell-based, IC50 (AID 1117351); type: functional
cells [25] = type: functional, cell-based; conditions: INS-1E
[26] = HeLa 2N DNA content increase, dose response, cell-based, IC50 (AID 1117349); type: functional
[27] = Dose-response inhibition of insulin secretion in a rat insulinoma line at 5 mM glucose (AID 1117331); type: functional, cell-based; conditions: INS-1E
[28] = RKO cell viability reduction, dose response, CellTiter-Glo luminescence (AID 1117322); type: functional
[29] = HCT116 cell viability decrease, GSK3B pretreatment – CellTiter-Glo, IC50, dose response (AID 1117339); type: functional; conditions: HCT-116
[30] = SNU-C1 cell viability reduction, dose response, CellTiter-Glo luminescence (AID 1117323); type: functional, cell-based

T2 sequence (P02675 whole entry, the tested form may be a part): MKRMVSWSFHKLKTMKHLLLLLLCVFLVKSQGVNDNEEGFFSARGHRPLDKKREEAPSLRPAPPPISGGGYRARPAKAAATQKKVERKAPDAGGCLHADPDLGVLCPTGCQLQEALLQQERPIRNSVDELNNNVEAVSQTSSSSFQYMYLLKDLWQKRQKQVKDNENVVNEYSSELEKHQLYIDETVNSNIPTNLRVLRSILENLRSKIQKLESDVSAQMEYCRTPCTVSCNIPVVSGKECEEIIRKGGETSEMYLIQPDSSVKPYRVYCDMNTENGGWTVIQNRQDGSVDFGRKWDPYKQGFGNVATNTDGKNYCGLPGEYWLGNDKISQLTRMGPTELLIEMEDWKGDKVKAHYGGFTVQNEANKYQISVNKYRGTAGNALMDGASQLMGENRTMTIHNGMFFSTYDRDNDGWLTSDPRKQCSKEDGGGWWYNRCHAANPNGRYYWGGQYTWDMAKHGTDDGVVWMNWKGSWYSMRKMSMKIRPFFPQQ
Paired box protein Pax-8, sequence (Q06710 whole entry): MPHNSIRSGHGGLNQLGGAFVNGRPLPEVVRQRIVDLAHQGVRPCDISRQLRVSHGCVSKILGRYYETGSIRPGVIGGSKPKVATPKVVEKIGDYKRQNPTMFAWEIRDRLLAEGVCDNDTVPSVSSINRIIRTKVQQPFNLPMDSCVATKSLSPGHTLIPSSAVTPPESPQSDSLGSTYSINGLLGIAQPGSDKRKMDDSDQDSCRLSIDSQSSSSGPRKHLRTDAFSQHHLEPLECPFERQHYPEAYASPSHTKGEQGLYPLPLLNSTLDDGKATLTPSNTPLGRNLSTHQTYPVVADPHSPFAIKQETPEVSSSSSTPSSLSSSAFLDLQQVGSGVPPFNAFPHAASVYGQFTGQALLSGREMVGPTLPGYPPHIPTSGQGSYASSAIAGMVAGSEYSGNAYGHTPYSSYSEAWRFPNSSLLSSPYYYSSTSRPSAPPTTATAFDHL
NAD-dependent protein deacylase sirtuin-5, mitochondrial, sequence (Q9NXA8 whole entry): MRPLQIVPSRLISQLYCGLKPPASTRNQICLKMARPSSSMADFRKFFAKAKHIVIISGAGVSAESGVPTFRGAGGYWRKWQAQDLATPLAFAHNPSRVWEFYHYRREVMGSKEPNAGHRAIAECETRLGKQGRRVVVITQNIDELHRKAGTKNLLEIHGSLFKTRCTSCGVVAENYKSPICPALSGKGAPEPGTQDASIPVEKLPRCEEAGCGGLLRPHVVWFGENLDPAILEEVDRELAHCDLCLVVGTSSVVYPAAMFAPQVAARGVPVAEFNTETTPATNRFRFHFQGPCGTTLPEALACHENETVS
Nonstructural protein 1, sequence (Q194T2 whole entry, the tested form may be a part): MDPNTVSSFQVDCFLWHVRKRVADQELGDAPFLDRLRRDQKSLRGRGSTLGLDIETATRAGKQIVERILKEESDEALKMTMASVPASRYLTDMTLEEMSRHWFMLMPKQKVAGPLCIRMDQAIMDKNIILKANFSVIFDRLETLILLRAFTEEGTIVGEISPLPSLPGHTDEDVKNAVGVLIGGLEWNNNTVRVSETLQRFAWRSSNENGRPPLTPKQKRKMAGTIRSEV
G-protein coupled receptor 183, sequence (P32249 whole entry): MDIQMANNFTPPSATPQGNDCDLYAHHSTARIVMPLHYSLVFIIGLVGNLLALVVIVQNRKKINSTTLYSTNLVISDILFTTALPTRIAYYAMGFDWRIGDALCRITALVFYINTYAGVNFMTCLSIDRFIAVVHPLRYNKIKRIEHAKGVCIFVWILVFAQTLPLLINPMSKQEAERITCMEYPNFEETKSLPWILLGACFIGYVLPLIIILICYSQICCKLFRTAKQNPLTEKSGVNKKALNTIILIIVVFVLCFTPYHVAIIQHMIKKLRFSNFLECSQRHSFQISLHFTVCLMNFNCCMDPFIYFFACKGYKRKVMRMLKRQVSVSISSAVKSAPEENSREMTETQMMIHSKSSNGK

N#CC(C#N)=c1ccc2c(c1)NC1(CCCCC1)N=2
active: EC50 [2] 1.55 µM | IC50 [3] 3.45 µM | IC50 (cells [5]) 10.7 µM | IC50 (Nonstructural protein 1) 15.6 µM | EC50 [7] 6.5 µM | EC50 [8] 1.37 µM | CC50 [9] 6.67 µM | EC50 [10] 9.91 µM | EC50 (H4) 5.95 µM | EC50 [11] 1.23 µM | CC50 [12] 15.4 µM
inactive: IC50 [1] > 100 µM | IC50 (Fibrinogen beta chain [4]) > 83.3 µM | IC50 (Fibrinogen beta chain [6]) 11.3 µM

C=CCN(c1ccccc1)S(=O)(=O)c1cccc(C(=O)Nc2ccncc2)c1
inactive: AC50 [13] > 30 µM

COc1ccc(NC(=O)Nc2ccc3c(c2)C(=O)N([C@H](C)CO)C[C@H](C)[C@H](CN(C)Cc2ccc(C(F)(F)F)cc2)OCCCC[C@H](C)O3)cc1
active: AC50 [14] 24 µM | AC50 [15] 26 µM | AC50 [16] 20.4 µM | AC50 [17] 18.4 µM | AC50 (Paired box protein Pax-8) 9.32 µM | AC50 [18] 23.6 µM | AC50 [19] 22.4 µM | AC50 [20] 27.7 µM | AC50 [21] 22.9 µM

O=C(/C=C/c1ccc(F)cc1)N1CCN(S(=O)(=O)CCc2ccccc2)CC1
active: IC50 [22] 0.00327 µM

CCN(CC)CCCC(C)Nc1c2ccc(Cl)cc2nc2ccc(OC)cc12 (stereo not drawn) [QUINACRINE HYDROCHLORIDE]
active: IC50 [23] 3.6 µM | IC50 [26] 2.16 µM | IC50 [27] 4.07 µM | IC50 [28] 3.42 µM | IC50 [29] 4.48 µM | IC50 [30] 3.84 µM
inactive: IC50 [24] > 10 µM | IC50 (cells [25]) > 33.3 µM
